{"source": "PubChem BioAssay AID540268", "about": "(Broad Institute, 2011)", "test": "reduced viability of parasite-Hsp90 expressing yeast – ATP luminescence, 48 h, cherry-picked samples, anti-malarial Hsp90 inhibitor project, dose response (AID 540268);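 on activity change, negative = inhibition: 0% = neutral control wells and -100% = positive control wells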", "conditions": "yeast expressing the parasite Hsp90, ATP luminescence; for activity change, negative = inhibition: at 26 µM (top of the series)", "note": "Calls of active or inactive are those of the source. How the calls were made is not given here."}
{"smiles": "O=C(Nc1nnc(SCc2ccc(F)cc2)s1)c1ccccn1", "values": [{"measurement": "AC50", "value": 4.41, "unit": "µM"}]}
{"smiles": "COc1ccccc1NS(=O)(=O)c1cc(C(=O)N2CC(C)CC(C)C2)ccc1C", "note": "(stereo not given)", "values": [{"measurement": "AC50", "value": 5.81, "unit": "µM"}]}
{"smiles": "O=C1S/C(=C/c2ccc(N3CCOCC3)o2)C(=O)N1Cc1c(F)cccc1Cl", "values": [{"measurement": "activity change, negative = inhibition", "value": "23.4% (inactive)"}]}
{"smiles": "Clc1ccc(COC(Cn2ccnc2)c2ccc(Cl)cc2Cl)c(Cl)c1", "note": "(stereo not given)", "values": [{"measurement": "AC50", "value": "< 0.195", "unit": "µM"}]}
{"smiles": "Cc1ccc(N2C(=O)C3C4C=CC(CNC(=S)N5CCN(c6cccc(C)c6)C(C)C5)(O4)C3C2=O)cc1", "note": "(stereo not given)", "values": [{"measurement": "AC50", "value": 4.65, "unit": "µM"}]}
{"smiles": "O=C(O)c1ccc(N/N=C/c2ccc(-c3ccccc3)cc2)cc1", "values": [{"measurement": "AC50", "value": 4.22, "unit": "µM"}]}
{"smiles": "O=C1C=CC(=O)N1Cc1ccccc1", "values": [{"measurement": "activity change, negative = inhibition", "value": "21.3% (inactive)"}]}
{"smiles": "O=[N+]([O-])/C=C/c1cn(Cc2ccc(F)cc2)c2ccccc12", "values": [{"measurement": "AC50", "value": 5.61, "unit": "µM"}]}
{"smiles": "CCCCCCC(=O)N(O)C1CC(=O)N(c2ccc(C)cc2)C1=O", "note": "(stereo not given)", "values": [{"measurement": "AC50", "value": 0.829, "unit": "µM"}]}
{"smiles": "CCC(=O)NC(c1ccc(Cl)cc1Cl)c1ccc2cccnc2c1O", "note": "(stereo not given)", "values": [{"measurement": "AC50", "value": 3.96, "unit": "µM"}]}
{"smiles": "O=C(Nc1nnc(-c2ccc3c(c2)CCCC3)o1)c1ccc(Cl)cc1Cl", "values": [{"measurement": "AC50", "value": 3.35, "unit": "µM"}]}
{"smiles": "O=C1C(Cl)=C(Oc2ccccc2)C(=O)c2ccccc21", "values": [{"measurement": "AC50", "value": "< 0.195", "unit": "µM"}]}
{"smiles": "O=C1NC(=S)S/C1=C\\c1cc2ccccc2nc1N1CCCCC1", "values": [{"measurement": "AC50", "value": 8.4, "unit": "µM"}]}
{"smiles": "Clc1ccc(COC(Cn2ccnc2)c2ccc(Cl)cc2Cl)cc1", "note": "(stereo not given)", "values": [{"measurement": "AC50", "value": "< 0.195", "unit": "µM"}]}
{"smiles": "O=[N+]([O-])c1cc(Cc2ccccc2)cc(C=Nc2ccc(N3CCOCC3)cc2)c1O", "values": [{"measurement": "AC50", "value": 3.46, "unit": "µM"}]}
{"smiles": "Cc1cccc(N=Nc2ccc(O)c3ncccc23)c1", "values": [{"measurement": "AC50", "value": 2.25, "unit": "µM"}]}
{"smiles": "O=S1(=O)C=C(Sc2nnc(-c3ccccc3)o2)c2ccccc21", "values": [{"measurement": "AC50", "value": 3.57, "unit": "µM"}]}
{"smiles": "Cc1csc(CNc2ncnc3ccc(-c4cccc(Cl)c4)cc23)c1", "values": [{"measurement": "AC50", "value": 8.17, "unit": "µM"}]}
{"smiles": "N#C/C(=C\\c1cccc([N+](=O)[O-])c1)C(=O)NCc1ccc(Cl)cc1", "values": [{"measurement": "AC50", "value": 6.75, "unit": "µM"}]}
{"smiles": "O=C(C#Cc1ccccc1)c1ccc([N+](=O)[O-])cc1", "values": [{"measurement": "AC50", "value": 2.1, "unit": "µM"}]}
{"smiles": "Cc1cccc(COC(=O)CCCNC(=O)c2ccc(Cl)cc2)c1", "values": [{"measurement": "AC50", "value": 8.69, "unit": "µM"}]}
{"smiles": "O=C1Nc2ccc(Br)cc2/C1=C/C(=O)c1ccccc1", "values": [{"measurement": "AC50", "value": 1.42, "unit": "µM"}]}
{"smiles": "O=C(c1ccc(-c2ccccc2)c(F)c1)C1CCCN(C(=O)c2cncs2)C1", "note": "(stereo not given)", "values": [{"measurement": "AC50", "value": 8.42, "unit": "µM"}]}
{"smiles": "CCOC(=O)C1CCCN(C2CC(=O)N(c3cccc(C(F)(F)F)c3)C2=O)C1", "note": "(stereo not given)", "values": [{"measurement": "AC50", "value": 4.24, "unit": "µM"}]}
{"smiles": "O=S(=O)(/C=C/c1ccccc1)NC1CCCCCCC1", "values": [{"measurement": "AC50", "value": 1.18, "unit": "µM"}]}
{"smiles": "CCN(CC)c1ccc(/C=C2/SC(=O)N(C(C)C)C2=O)o1", "values": [{"measurement": "AC50", "value": 13.5, "unit": "µM"}]}
{"smiles": "Cc1ccc(O)c(-c2cc(-c3cccc(F)c3)n[nH]2)c1", "values": [{"measurement": "AC50", "value": 17.2, "unit": "µM"}]}
{"smiles": "Cc1cc(C)c2c(N=NN3CCOCC3)[nH]nc2n1", "values": [{"measurement": "AC50", "value": 7.65, "unit": "µM"}]}
{"smiles": "CCc1ccc(OCC(=O)NNC(=S)NC(=O)C2CC2)c(Br)c1", "values": [{"measurement": "AC50", "value": 1.12, "unit": "µM"}]}
{"smiles": "Cc1cccc(C)c1NC(=O)C(Cl)C(=O)c1ccccc1", "note": "(stereo not given)", "values": [{"measurement": "AC50", "value": 1.11, "unit": "µM"}]}
{"smiles": "CCCc1cc(NCc2ccccn2)n2nc(C)c(-c3ccccc3)c2n1", "values": [{"measurement": "AC50", "value": 1.29, "unit": "µM"}]}
{"smiles": "CC(C)N(CCC(=O)c1ccc2ccccc2c1)Cc1ccccc1", "values": [{"measurement": "AC50", "value": 17.6, "unit": "µM"}]}
{"smiles": "O=C(C#Cc1cccc([N+](=O)[O-])c1)c1ccccc1", "values": [{"measurement": "AC50", "value": 0.36, "unit": "µM"}]}
{"smiles": "Cc1nn2c(NCc3ccccn3)cc(C(C)(C)C)nc2c1-c1ccccc1", "values": [{"measurement": "AC50", "value": 3.02, "unit": "µM"}]}
{"smiles": "COc1ccc(OC)c(NC(=O)Nc2ccc(O)c3ccccc23)c1", "values": [{"measurement": "AC50", "value": "< 0.195", "unit": "µM"}]}
{"smiles": "Oc1cc(Cl)c(Cl)c(Cl)c1Cl", "values": [{"measurement": "AC50", "value": 1.7, "unit": "µM"}]}
{"smiles": "COc1ccc(-c2nn(-c3ccccc3)cc2C(=O)N2CCN(S(=O)(=O)c3ccccc3[N+](=O)[O-])CC2)cc1", "values": [{"measurement": "AC50", "value": 4.14, "unit": "µM"}]}
{"smiles": "CC(C)CC(=O)NC(c1cccs1)c1ccc2cccnc2c1O", "note": "(stereo not given)", "values": [{"measurement": "AC50", "value": 2.72, "unit": "µM"}]}
{"smiles": "O=C1[C@@H]2C(c3cccnc3)=NO[C@@H]2C(=O)N1c1ccc(Br)cc1", "values": [{"measurement": "AC50", "value": 3.1, "unit": "µM"}]}
{"smiles": "Cc1occc1-c1nnc(-c2cc([N+](=O)[O-])cc([N+](=O)[O-])c2)o1", "values": [{"measurement": "AC50", "value": 2.4, "unit": "µM"}]}
{"smiles": "Cc1ccc(S(=O)(=O)c2ccc([N+](=O)[O-])cn2)cc1", "values": [{"measurement": "AC50", "value": 3.87, "unit": "µM"}]}
{"smiles": "O=C(c1ccc(Br)cc1)C(CN1CCOCC1)c1ccccc1", "note": "(stereo not given)", "values": [{"measurement": "AC50", "value": 2.91, "unit": "µM"}]}
{"smiles": "Cc1cc(N2CCN(C(=O)c3ccco3)CC2)n2ncc(-c3ccccc3)c2n1", "values": [{"measurement": "AC50", "value": 2.31, "unit": "µM"}]}
{"smiles": "Cc1ccccc1Oc1cc(-n2ncc(Cl)c(Cl)c2=O)ncn1", "values": [{"measurement": "AC50", "value": 1.11, "unit": "µM"}]}
{"smiles": "Cc1cccc(NC(=S)NCC23C=CC(O2)C2C(=O)N(c4ccc(Cl)cc4)C(=O)C23)c1", "note": "(stereo not given)", "values": [{"measurement": "AC50", "value": 8.4, "unit": "µM"}]}
